Experimental data from patent US10725042B2, “Methods of diagnosing and treating cancer” (Case Western Reserve University, priority 2012, dated 2020).
pIC50: −log10 of the molar value.

Columns and labels:
H1975 wt tumors = assay: H1975 wt xenografts in NOD-SCID mice; type: in vivo
Method: Tumor cells in early passage (5×10^6) were injected into bilateral flanks of female NODSCID mice (6 weeks old). When tumor volumes reached 100 mm3, mice were divided into control (n=4) and treatment (n=6) groups. Mice bearing tumors were treated with pemetrexed (150 mg/kg) or 100 μl sterile PBS (control) by daily intraperitoneal injection (IP) for 5 consecutive days. Tumor measurements were taken every 2 days and response was quantified by tumor volume.

DLD1 UDG+/+ cells = assay: Colony survival (clonogenic) assay, UDG+/+ cells; type: cell-based; details: Homo sapiens, DLD-1, interpolated from dose-response survival curves, read-out: IC50 value for pemetrexed
Method: Tumor cells (500-2000/dish) were plated and treated with pemetrexed (0-400 nM), 5-fluorouracil (0-20 μM), temozolomide (0-1500 μM), or cisplatin (0-40 μM). After 7 days, surviving colonies were stained with methylene blue for 30 min at room temperature and the colonies containing more than 50 cells were counted to generate survival curves.

With `Nc1nc2[nH]cc(CCc3ccc(C(=O)N[C@@H](CCC(=O)O)C(=O)O)cc3)c2c(=O)[nH]1` [pemetrexed] the “tumors smaller than untreated controls” value (H1975 wt tumors; H1975 wild type tumors, day 20, pemetrexed 150 mg/kg IP x5) was 37.8%, the tumor quadrupling time (H1975 wt tumors; H1975 wt tumors, pemetrexed 150 mg/kg IP, 5 daily injections) was 9.68 ± 0.31 days and the pIC50 (DLD1 UDG+/+ cells) was 6.68.
